The record followed here is patent US9108983B2, “Pyrrole compounds, a process for their preparation and pharmaceutical compositions containing them” (LES LABORATOIRES SERVIER, priority 2013, dated 2015).

The target of one assay is Bcl-2 protein (histag-Bcl-2, UniProtKB P10415) (Homo sapiens (Human), UniProt P10415). Kind of assay: Inhibition of Bcl-2 by the fluorescence polarisation technique. It is filed as binding. Conditions: incubation for 2 hours, read-out: IC50 (nM) Bcl-2 FP. The method, boiled down: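 In pH 7.4 buffer (Hepes 10 mM, NaCl 150 mM, Tween20 0.05%), test compounds at increasing concentrations competed with a fluorescein peptide (1.00×10^−8 M final) for histag-Bcl-2 (2.50×10^−8 M final). Readout was fluorescence polarisation after a 2 h incubation.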
For orientation: In fluorescence polarisation assays a small probe gives low polarisation when free and higher when bound to something large.

The subject of assay [1] is RS4;11 leukaemia tumour line. Kind of assay: In vitro cytotoxicity (Microculture Tetrazolium Assay). The assay is classed as cell-based. The conditions noted are these: Homo sapiens, RS4-11, 48 h, RS4;11 cells, exposed for 48 hours, cell viability; read-out: IC50 (nM) MTT RS4;11. Here is the method:
The cytotoxicity studies were carried out on the RS4;11 leukaemia tumour line.
The cells are distributed onto microplates and exposed to the test compounds for 48 hours.
The cell viability is then quantified by a colorimetric assay, the Microculture Tetrazolium Assay (Cancer Res., 1987, 47, 939-942).

Counter-ions that a name gives are not always drawn.

Chain of Bcl-2 protein (P10415 whole entry): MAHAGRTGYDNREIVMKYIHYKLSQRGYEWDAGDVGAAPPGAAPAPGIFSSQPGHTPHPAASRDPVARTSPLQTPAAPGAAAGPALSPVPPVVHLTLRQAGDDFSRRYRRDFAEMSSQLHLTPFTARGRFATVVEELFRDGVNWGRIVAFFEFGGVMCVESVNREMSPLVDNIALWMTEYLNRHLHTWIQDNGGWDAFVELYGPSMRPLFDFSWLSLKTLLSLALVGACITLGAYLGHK

For `Cc1c(C(=O)N(c2ccccc2)c2cnc3c(c2)CCN3C)cc(-c2cc(Cl)ccc2C(=O)N2Cc3ccccc3C[C@H]2CN2CCOCC2)n1C` [Example 129, 5-(5-Chloro-2-{[(3S)-3-(morpholin-4-ylmethyl)-3,4-dihydroisoquinolin-2(1H)-yl]carbonyl}phenyl)-1,2-dimethyl-N-(1-methyl-2,3-dihydro-1H-pyrrolo[2,3-b]-pyridin-5-yl)-N-phenyl-1H-pyrrole-3-carboxamide], the half-maximal inhibitory concentration (IC50) (in general, the concentration at which inhibition is half-maximal) at Bcl-2 protein was found to be 18.1 nM; in assay [1] it was 275 nM.
Consider `Cc1c(C(=O)N(c2ccc(O)cc2)c2cnn(C)c2)cc(-c2cc(Cl)ccc2C(=O)N2Cc3ccccc3C[C@H]2CN2CC3(CCO3)C2)n1C` [Example 207, 5-(5-Chloro-2-{[(3S)-3-(1-oxa-6-azaspiro[3.3]hept-6-ylmethyl)-3,4-dihydroisoquinolin-2(1H)-yl]carbonyl}phenyl)-N-(4-hydroxyphenyl)-1,2-dimethyl-N-(1-methyl-1H-pyrazol-4-yl)-1H-pyrrole-3-carboxamide], for which the IC50 at Bcl-2 protein was 4.6 nM; in assay [1], 32.2 nM.
For `COc1cc(C(=O)N2Cc3ccccc3C[C@H]2CN2CCOCC2)c(-c2cc(C(=O)N(c3ccc(O)cc3)c3cnc4c(ccn4C)c3)c(C)n2C)cc1F` [Example 209, 5-(5-Fluoro-4-methoxy-2-{[(3S)-3-(morpholin-4-ylmethyl)-3,4-dihydroisoquinolin-2(1H)-yl]carbonyl}phenyl)-N-(4-hydroxyphenyl)-1,2-dimethyl-N-(1-methyl-1H-pyrrolo[2,3-b]pyridin-5-yl)-1H-pyrrole-3-carboxamide hydrochloride], the IC50 at Bcl-2 protein came to 7.4 nM; in assay [1] it was 25.4 nM.
`Cc1c(C(=O)N(c2ccc(O)cc2)c2cnn(C3CC3)c2)cc(-c2cc(F)ccc2C(=O)N2Cc3ccccc3C[C@H]2CN2CCOCC2)n1C` [Example 214, N-(1-Cyclopropyl-1H-pyrazol-4-yl)-5-(5-fluoro-2-{[(3S)-3-(morpholin-4-ylmethyl)-3,4-dihydroisoquinolin-2(1H)-yl]carbonyl}phenyl)-N-(4-hydroxyphenyl)-1,2-dimethyl-1H-pyrrole-3-carboxamide hydrochloride]: the IC50 at Bcl-2 protein was 6.3 nM; in assay [1], 236 nM.
For `COCCc1c(C(=O)N(c2ccc(O)cc2)c2cnc3c(c2)CCN3C)cc(-c2cc3c(cc2C(=O)N2Cc4ccccc4C[C@H]2CN2CCOCC2)OCO3)n1C` [Example 358, N-(4-Hydroxyphenyl)-2-(2-methoxyethyl)-1-methyl-N-(1-methyl-2,3-dihydro-1H-pyrrolo[2,3-b]pyridin-5-yl)-5-(6-{[(3S)-3-(morpholin-4-ylmethyl)-3,4-dihydroisoquinolin-2(1H)-yl]carbonyl}-1,3-benzodioxol-5-yl)-1H-pyrrole-3-carboxamide hydrochloride], the IC50 stood at 14.8 nM on Bcl-2 protein and 165 nM in assay [1].
Regarding `Cc1c(C(=O)N(c2ccncc2)c2ccc(O)cc2)cc(-c2cc(F)ccc2C(=O)N2Cc3ccccc3C[C@H]2CN2CCOCC2)n1C` [Example 384, 5-(5-Fluoro-2-{[(3S)-3-(morpholin-4-ylmethyl)-3,4-dihydroisoquinolin-2(1H)-yl]carbonyl}phenyl)-N-(4-hydroxyphenyl)-1,2-dimethyl-N-(pyridin-4-yl)-1H-pyrrole-3-carboxamide hydrochloride], the IC50 at Bcl-2 protein turned out to be 9.7 nM; in assay [1], 216 nM.
`Cc1c(C(=O)N(c2ccc(O)cc2)c2cnc3c(ccn3C)c2)cc(-c2cc(F)ccc2C(=O)N2Cc3ccccc3C[C@H]2CN2CCOCC2)n1C` [Example 385, 5-(5-Fluoro-2-{[(3S)-3-(morpholin-4-ylmethyl)-3,4-dihydroisoquinolin-2(1H)-yl]carbonyl}phenyl)-N-(4-hydroxyphenyl)-1,2-dimethyl-N-(1-methyl-1H-pyrrolo[2,3-b]pyridin-5-yl)-1H-pyrrole-3-carboxamide hydrochloride]: the IC50 on Bcl-2 protein stood at 5.7 nM; in assay [1], 28.7 nM.
With `Cc1c(C(=O)N(c2ccc(O)cc2)c2cc3ccn(C)c3cn2)cc(-c2cc3c(cc2C(=O)N2Cc4ccccc4C[C@H]2CN2CCOCC2)OCO3)n1C` [Example 387, N-(4-Hydroxyphenyl)-1,2-dimethyl-N-(1-methyl-1H-pyrrolo[2,3-c]pyridin-5-yl)-5-(6-{[(3S)-3-(morpholin-4-ylmethyl)-3,4-dihydroisoquinolin-2(1H)-yl]carbonyl}-1,3-benzodioxol-5-yl)-1H-pyrrole-3-carboxamide hydrochloride], the IC50 at Bcl-2 protein came out at 20.6 nM; in assay [1] it was 243 nM.
As for `Cc1c(C(=O)N(c2ccc(O)cc2)c2cc3ccn(C)c3cn2)cc(-c2cc(Cl)ccc2C(=O)N2Cc3ccccc3C[C@H]2CN2CCOCC2)n1C` [Example 389, 5-(5-Chloro-2-{[(3S)-3-(morpholin-4-ylmethyl)-3,4-dihydroisoquinolin-2(1H)-yl]carbonyl}phenyl)-N-(4-hydroxyphenyl)-1,2-dimethyl-N-(1-methyl-1H-pyrrolo[2,3-c]pyridin-5-yl)-1H-pyrrole-3-carboxamide hydrochloride], the IC50 on Bcl-2 protein was 14.7 nM; in assay [1] it was 208 nM.
As for `Cc1c(C(=O)N(c2ccccc2)c2cnc3c(ccn3C)c2)cc(-c2cc(Cl)ccc2C(=O)N2Cc3ccccc3C[C@H]2CN2CCOCC2)n1C` [Example 390, 5-(5-Chloro-2-{[(3S)-3-(morpholin-4-ylmethyl)-3,4-dihydroisoquinolin-2(1H)-yl]carbonyl}phenyl)-1,2-dimethyl-N-(1-methyl-1H-pyrrolo[2,3-b]pyridin-5-yl)-N-phenyl-1H-pyrrole-3-carboxamide], the IC50 at Bcl-2 protein was determined as 21.2 nM; in assay [1] it was 173 nM.
Take `Cc1c(C(=O)N(c2ccc(O)cc2)c2ccc3c(ccn3C)n2)cc(-c2cc(Cl)ccc2C(=O)N2Cc3ccccc3C[C@H]2CN2CCOCC2)n1C` [Example 391, 5-(5-Chloro-2-{[(3S)-3-(morpholin-4-ylmethyl)-3,4-dihydroisoquinolin-2(1H)-yl]carbonyl}phenyl)-N-(4-hydroxyphenyl)-1,2-dimethyl-N-(1-methyl-1H-pyrrolo[3,2-b]pyridin-5-yl)-1H-pyrrole-3-carboxamide hydrochloride]: the results for the IC50 (on Bcl-2 protein; in assay [1]) were 30.3 nM and 255 nM, respectively.
In the case of `Cc1c(C(=O)N(c2ccccc2)c2ccc(O)cc2)cc(-c2cc(Cl)ccc2C(=O)N2Cc3ccccc3C[C@H]2CCCN2CCOCC2)n1C` [Example 392, 5-(5-Chloro-2-{[(3R)-3-[3-(morpholin-4-yl)propyl]-3,4-dihydroisoquinolin-2(1H)-yl]carbonyl}phenyl)-N-(4-hydroxyphenyl)-1,2-dimethyl-N-phenyl-1H-pyrrole-3-carboxamide hydrochloride], the IC50 was determined as 3.8 nM on Bcl-2 protein and 11.4 nM in assay [1].
As for `Cc1c(C(=O)N(c2ccc(O)cc2)c2cnc3c(ccn3C)c2)cc(-c2cc(Cl)ccc2C(=O)N2Cc3ccccc3C[C@H]2CCCN2CCOCC2)n1C` [Example 393, 5-(5-Chloro-2-{[(3R)-3-[3-(morpholin-4-yl)propyl]-3,4-dihydroisoquinolin-2(1H)-yl]carbonyl}phenyl)-N-(4-hydroxyphenyl)-1,2-dimethyl-N-(1-methyl-1H-pyrrolo[2,3-b]pyridin-5-yl)-1H-pyrrole-3-carboxamide hydrochloride], the IC50 on Bcl-2 protein amounted to 2.1 nM; in assay [1], 1.95 nM.
With `Cc1c(C(=O)N(c2ccc(O)cc2)c2cnc3c(c2)CCN3C)cc(-c2cc(Cl)ccc2C(=O)N2Cc3ccccc3C[C@H]2CCCN2CCOCC2)n1C` [Example 394, 5-(5-Chloro-2-{[(3R)-3-[3-(morpholin-4-yl)propyl]-3,4-dihydroisoquinolin-2(1H)-yl]carbonyl}phenyl)-N-(4-hydroxyphenyl)-1,2-dimethyl-N-(1-methyl-2,3-dihydro-1H-pyrrolo[2,3-b]pyridin-5-yl)-1H-pyrrole-3-carboxamide], the IC50 at Bcl-2 protein came to 2.5 nM; in assay [1], 2.76 nM.
Take `COc1ccc(N(C(=O)c2cc(-c3cc(Cl)ccc3C(=O)N3Cc4ccccc4C[C@H]3CN3CCOCC3)n(C)c2C)c2ccc(O)cc2)cc1C#N` [Example 395, 5-(5-Chloro-2-{[(3S)-3-(morpholin-4-ylmethyl)-3,4-dihydroisoquinolin-2(1H)-yl]carbonyl}phenyl)-N-(3-cyano-4-methoxyphenyl)-N-(4-hydroxyphenyl)-1,2-dimethyl-1H-pyrrole-3-carboxamide hydrochloride]: the IC50 at Bcl-2 protein is 3.5 nM; in assay [1], 7.57 nM.
On to `Cc1c(C(=O)N(c2ccc(O)c(F)c2)c2cnn(C)c2)cc(-c2cc3c(cc2C(=O)N2Cc4ccccc4C[C@H]2CN2CCOCC2)OCO3)n1C` [Example 396, N-(3-Fluoro-4-hydroxyphenyl)-1,2-dimethyl-N-(1-methyl-1H-pyrazol-4-yl)-5-(6-{[(3S)-3-(morpholin-4-ylmethyl)-3,4-dihydroisoquinolin-2(1H)-yl]carbonyl}-1,3-benzodioxol-5-yl)-1H-pyrrole-3-carboxamide hydrochloride], for which the IC50 was found to be 15.7 nM at Bcl-2 protein and 116 nM in assay [1].
For `COc1ncc(N(C(=O)c2cc(-c3cc(Cl)ccc3C(=O)N3Cc4ccccc4C[C@H]3CN3CCOCC3)n(C)c2C)c2ccc(O)cc2)cn1` [Example 397, 5-(5-Chloro-2-{[(3S)-3-(morpholin-4-ylmethyl)-3,4-dihydroisoquinolin-2(1H)-yl]carbonyl}phenyl)-N-(4-hydroxyphenyl)-N-(2-methoxypyrimidin-5-yl)-1,2-dimethyl-1H-pyrrole-3-carboxamide], the values for the IC50 (at Bcl-2 protein; in assay [1]) were 4.5 nM and 37.1 nM, respectively.
